In PubChem BioAssay (NCI):
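Five concentrations, 48 hours, 96-well plates. TGI: total growth inhibition.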

How the values were obtained:
Test in all cases: NCI tumour cell line growth inhibition, 48 h
[1] = system: U251 CNS
[2] = system: HL-60(TB) leukemia
[3] = system: DU-145 prostate
[4] = system: NCI/ADR-RES ovarian
[5] = system: MDA-N
[6] = system: MALME-3M melanoma
[7] = system: SF-295 CNS
[8] = system: HCT-15 colon
[9] = system: SK-MEL-5 melanoma
[10] = system: K-562 leukemia
[11] = system: NCI-H226 lung
[12] = system: PC-3 prostate
[13] = system: COLO 205 colon
[14] = system: HT29 colon
[15] = system: T-47D breast
[16] = system: SF-268 CNS
[17] = system: SR leukemia
[18] = system: M14 melanoma
[19] = system: SK-MEL-28 melanoma

Row | SMILES | TGI [1] [µM] | TGI [2] [µM] | TGI [3] [µM] | TGI [4] [µM] | TGI [5] [µM] | TGI [6] [µM] | TGI [7] [µM] | TGI [8] [µM] | TGI [9] [µM] | TGI [10] [µM] | TGI [11] [µM] | TGI [12] [µM] | TGI [13] [µM] | TGI [14] [µM] | TGI [15] [µM] | TGI [16] [µM] | TGI [17] [µM] | TGI [18] [µM] | TGI [19] [µM]
1 | Cc1ccc(S(=O)(=O)n2c3c(c4ccccc42)CCN2CCC(Br)C[C@@H]32)cc1 (some centres not stated) | 24.9 | 17.4 | 29.1 | 32.5 | 15.8 | 26.1 | 23.1 | 24.4 | 20.2 | 18.6 | 27.9 | 26.3 | 30.2 | 26.3 | 21.8 | 30.8 | 19.2 | 25.9 | 24.5
2 | COC(=O)CC(=O)Nc1sccc1S(=O)(=O)c1ccccc1 | > 100 | > 100 | > 100 | > 100 | > 100 | > 100 | > 100 | > 100 | > 100 | > 100 | 95 | > 100 | > 100 | > 100 | > 100 | > 100 | > 100 | > 100 | > 100
3 | COc1cc(Oc2nc3c(N)cc(C(F)(F)F)cc3nc2-c2ccccc2)cc(OC)c1OC | > 45.7 | > 100 | > 100 | > 26.1 | 3.08 | 11.5 | > 29 | > 100 | 48.6 | 6.6 | > 78.2 | 29.5 | > 80.7 | 5.31 | > 100 | > 100 | > 100 | > 100 | > 68.7
4 | CCOc1cc2c(cc1OC(C)=O)C(=O)CC[C@H]1C3CC[C@H](OC(C)=O)[C@@]3(C)CC[C@H]21 (some centres not stated) | > 100 | > 100 | > 100 | > 100 | > 100 | > 100 | > 100 | > 100 | > 100 | > 100 | > 100 | > 100 | > 100 | > 100 | > 100 | > 100 | > 100 | > 100 | > 100
5 | COc1cc(/C=C2\C(=O)N(Cc3ccccc3)C(c3ccccc3)S2(=O)=O)cc(OC)c1OC (configuration not stated) | > 100 | 44.9 | > 100 | > 100 | > 100 | > 100 | > 100 | > 100 | 51.8 | > 100 | > 100 | > 100 | 94 | > 100 | > 100 | > 100 | 65.5 | > 100 | > 100
6 | O=C1/C(=C/c2ccccc2)CCC/C1=C\c1ccc(O)c(CN2CCCCC2)c1 | 11 | > 100 | 7.44 | 8.44 | 8.11 | 40.2 | 13 | 3.74 | 9.62 | > 100 | 16.9 | 13.8 | 15.4 | 4.04 | 17.6 | 17 | 6.38 | 26.1 | 17.5
7 | NC(=O)NC(=O)c1cccc(NC(=O)CF)c1 | > 100 | > 100 | > 100 | > 100 | > 100 | > 100 | > 100 | > 100 | > 100 | > 100 | > 100 | > 100 | > 100 | > 100 | > 100 | > 100 | > 100 | > 100 | > 100
8 | CC(=O)O[C@H]1CCn2c3c(c(C)c21)C(=O)C(N1CC1)=C(C)C3=O | > 10 | > 10 | > 10 | > 10 | > 10 | > 10 | > 10 | > 10 | 6.67 | > 10 | > 10 | > 10 | > 10 | > 10 | > 10 | > 10 | > 10 | > 10 | –
9 | Cc1n[nH]c(=O)n1/N=C\CC/C=N\n1c(C)n[nH]c1=O | > 100 | > 100 | > 100 | > 100 | > 100 | > 100 | > 100 | > 100 | > 100 | > 100 | > 100 | > 100 | > 100 | > 100 | > 100 | > 100 | > 100 | > 100 | > 100
10 | NNCCc1n[nH]c(=O)n1N | > 100 | > 100 | > 100 | > 100 | > 100 | > 100 | > 100 | > 100 | > 100 | > 100 | > 100 | > 100 | > 100 | > 100 | > 100 | > 100 | > 100 | > 100 | > 100
11 | CC(C)(C)OC(=O)N/N=C(/N)Cc1ccccc1 | > 100 | > 100 | > 100 | > 100 | > 100 | > 100 | > 100 | > 100 | > 100 | > 100 | > 100 | > 100 | > 100 | > 100 | > 100 | > 100 | > 100 | > 100 | > 100
12 | COc1cccc2c1C(=O)c1ccc3cc(CCl)cc(O)c3c1C2=O | 1.67 | 0.551 | 1.78 | 1.39 | 0.765 | 0.515 | 2.23 | 1.13 | 1.19 | 2.49 | 1.78 | 0.973 | 0.467 | 0.578 | 1.73 | 1.42 | 1.13 | 0.743 | 1.04
